In US20240228501A1, “IMIDAZOLE-CONTAINING CONDENSED RING DERIVATIVE, PREPARATION METHOD THEREFOR, AND APPLICATION THEREOF IN MEDICINE” (CHANGCHUN GENESCIENCE PHARMACEUTICAL CO., LTD., priority 2021, published 2024):
Where two headings read alike, the source gives them in different places.

Legend:
MDR1 = test: In vitro brain model test: MDR1-MDCKII bidirectional permeability; type: in vitro ADME; settings: dog
Protocol: The test product was diluted from dimethyl sulfoxide stock solution to a concentration of 2 μM (dimethyl sulfoxide <1%) with a transfer buffer (HBSS containing 10 mM Hepes, pH7.4); and was applied to apical or basolateral cavities of the cell monolayer. Penetration of the test compound from the direction A to the direction B or from the direction B to the direction A was determined in duplicate. Digoxin was detected at 10 μM in the direction of A-B, or detected in the direction of B-A, while Nadolol and Metoprolol were detected at 2 μM in the direction of A-B in duplicate. The plate was cultivated in a CO2 incubator at 37±1° C. for 2.5 h with 5% CO2 at a saturated humidity without shaking. Further, the efflux rate of each compound was also determined. According to the peak area ratio of analyte/IS, the test product and the control product were quantitatively analyzed by LC-MS/MS.
After the transfer test, the monolayer integrity of cells was determined by a lucifer yellow exclusion assay. Buffer was removed from apical and basolateral cavities, and then 75 μL of 100 μM lucifer yellow and 250 μL of transfer buffer were added into the apical and basolateral cavities, respectively. The culture dish was cultivated at 37° C., 5% CO2, and saturated humidity for 30 min without shaking. After incubation for 30 min, 20 μL of lucifer yellow sample was extracted from the top, and then 60 μL of the transfer buffer was added. Then, 80 μL of lucifer yellow sample was extracted basolaterally. Relative Fluorescence Units (RFU) of lucifer yellow were measured at 425/528 nm (excitation/emission) with an Envision plate reader.

[1] = Pharmacokinetic test in rats (gavage 3 mg/kg, intravenous 1 mg/kg); type: in vivo; settings: rat, plasma, SD rats; for AUC: read-out: Curve area AUC; for half-life: read-out: Half life T1/2 (converted)
Protocol: Test Example 2: Pharmacokinetic Test of Compounds of the present invention in Rats
(§1) To study in vivo pharmacokinetic behaviors of the compounds of the present invention in rats, and evaluate pharmacokinetic characteristics thereof.
An appropriate amount of sample was weighed, and ultrasonically prepared into a 0.3 mg/mL suspension for the gavage administration group; and was prepared into a 0.2 mg/mL suspension for the intravenous administration group as per a formula of 5% DMSO+10% Solutol+85% (20% SBE-β-CD).
SD rats were fasted overnight, and then administered by gavage at a dosage of 3 mg/kg and by intravenous injection at a dosage of 1 mg/kg, respectively.
0.1 mL of blood was collected before administration and at 5 min, 15 min, 30 min, 1 h, 2 h, 4 h, 8 h, and 24 h after administration, transferred into heparinized tubes, and centrifuged at 3500 rpm for 10 min to separate the plasma, which was stored at −20° C. 4 h after administration, the animals were resumed for feeding/free access to water.
Contents of the test compounds in plasma of the rats after gavage administration were determined by LC/MS/MS.

[2] = Pharmacokinetic test in rats: plasma and brain concentration after gavage 3 mg/kg; type: in vivo; settings: rat, oral, SD rats
Protocol: Test Example 4: Pharmacokinetic Test of Compounds of the Present Invention in Rats
as §1
An appropriate amount of sample was weighed, and ultrasonically prepared into a 0.3 mg/mL suspension for the gavage administration group as per a formula of 5% DMSO+10% Solutol+85% (20% SBE-β-CD).
SD rats were fasted overnight, and then administered by gavage at a dosage of 3 mg/kg respectively.
Blood and cerebrospinal fluid were collected at designed time points after administration, and then brain tissue was collected after cardiac perfusion with normal saline. Plasma was collected by centrifugation within 1 h, and then immediately transferred onto wet ice. Centrifugation conditions: 4-10° C., 8,000 rpm, 6 min. 4 h after administration, the animals were resumed for feeding/free access to water.
The concentrations of corresponding compounds in plasma and cerebrospinal fluid were detected by LC-MS/MS.

human NK-3 receptor = biological target: T1, human NK-3 receptor (Homo sapiens, UniProt P29371); test: Antagonistic activity on human NK-3 receptor in human NK-3R/HEK293 stably transfected cells (Fluo-4, FLIPR, Neurokinin B as agonist); type: cell-based; settings: human NK-3R/HEK293 cells
T1 construct: expressed in transfected cells; host or cells: HEK293
T1 sequence (P29371 1-465): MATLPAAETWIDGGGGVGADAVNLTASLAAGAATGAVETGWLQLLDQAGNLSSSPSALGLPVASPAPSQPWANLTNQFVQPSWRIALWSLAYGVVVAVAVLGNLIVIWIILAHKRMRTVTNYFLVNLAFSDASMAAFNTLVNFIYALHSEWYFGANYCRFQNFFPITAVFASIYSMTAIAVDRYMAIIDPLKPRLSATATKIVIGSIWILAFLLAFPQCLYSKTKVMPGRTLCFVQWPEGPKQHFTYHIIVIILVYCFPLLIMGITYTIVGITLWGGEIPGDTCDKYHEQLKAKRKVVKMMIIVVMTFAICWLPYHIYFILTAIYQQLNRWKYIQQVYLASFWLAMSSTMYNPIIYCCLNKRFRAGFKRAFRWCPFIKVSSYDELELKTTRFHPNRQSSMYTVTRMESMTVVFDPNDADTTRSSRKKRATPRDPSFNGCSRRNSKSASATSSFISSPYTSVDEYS
How it was run: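 HEK293 cells stably expressing human NK-3R loaded with Component A dye 2 h at 37° C, then preincubated with serially 3-fold diluted compound 30 min at 25° C. Neurokinin B (2.5 nM, 6× stock) added on FLIPR Tetra to read calcium signal. IC50 from inhibition curves versus reference agonist.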

[3] = MDCK-MDR1, pH 7.4, 2 μM, 2.5 h, pH7.4

`Cc1nsc(-c2nc(-c3cc(F)ncc3F)c3n2CCN(C(=O)c2ccc(F)cc2)[C@@H]3C)n1` [Compound 077, (R)-(1-(2,5-difluoropyridin-4-yl)-8-methyl-3-(3-methyl-1,2,4-thiadiazol-5-yl)-5,6-dihydroimidazo[1,5-a]pyrazin-7 (8H)-yl)(4-fluorophenyl)methanone] showed a Papp A→B at 2.5 h, 2 μM (MDR1; [3]) of 18.3 ×10⁻⁶ cm/s, a Papp B→A at 2.5 h, 2 μM (MDR1; [3]) of 14 ×10⁻⁶ cm/s and an efflux ratio at 2.5 h, 2 μM (MDR1; MDCK-MDR1, pH 7.4, B to A / A to B, read-out: Efflux rate) of 0.77. For the same compound, the bioavailability ([1]; po, gavage 3 mg/kg vs intravenous 1 mg/kg, read-out: Oral bioavailability F (%)) was 58.4%, the Cmax ([1]; po, gavage 3 mg/kg, read-out: Blood concentration Cmax) was 494 ± 70.6 ng/mL and the AUC ([1]; po, gavage 3 mg/kg) was 9860 ± 3550 ng·h/mL. The half-life ([1]; po, gavage 3 mg/kg) was 11.7 ± 7.72 h, the AUC ([1]; intravenous injection 1 mg/kg) was 5170 ± 581 ng·h/mL and the half-life ([1]; intravenous injection 1 mg/kg) was 11.8 ± 3.54 h. For the same compound, the concentration at 0.5 h ([2]; brain, sampling time 0.5 h, read-out: Brain conc.) was 2570 ± 178 ng/mL, the concentration at 2 h ([2]; brain, sampling time 2 h, read-out: Brain conc.) was 1980 ± 232 ng/mL and the concentration at 8 h ([2]; brain, sampling time 8 h, read-out: Brain conc.) was 2020 ± 406 ng/mL. It also gave a Kp at 0.5 h ([2]; brain/plasma, sampling time 0.5 h, read-out: B/P ratio) of 3.25, a Kp at 2 h ([2]; brain/plasma, sampling time 2 h, read-out: B/P ratio) of 3.66 and a Kp at 8 h ([2]; brain/plasma, sampling time 8 h, read-out: B/P ratio) of 3.36. It also gave a concentration at 0.5 h ([2]; plasma, sampling time 0.5 h, read-out: Plasma conc.) of 798 ± 79.8 ng/mL, a concentration at 2 h ([2]; plasma, sampling time 2 h, read-out: Plasma conc.) of 547 ± 94.5 ng/mL and a concentration at 8 h ([2]; plasma, sampling time 8 h, read-out: Plasma conc.) of 598 ± 74.9 ng/mL. The IC50 (human NK-3 receptor) was 14.5 nM.
